Values quoted from earlier work in patent US20240115713A1, “POLYETHYLENE GLYCOL CONJUGATE DRUG, AND PREPARATION METHOD THEREFOR AND USE THEREOF” (CHONGQING UPGRA BIOTECHNOLOGY CO., LTD., priority 2020, published 2024).

Molecular target: FA receptors
Details: read-out: Kd, binding affinity to the FA receptors

Kd: ~0.1 nM
SMILES: Nc1nc2ncc(CNc3ccc(C(=O)N[C@@H](CCC(=O)O)C(=O)O)cc3)nc2c(=O)[nH]1 [FA, folic acid]
